Reference: US9278131B2, “Process for lowering the viscosity of highly concentrated protein solutions” (ADOCIA, priority 2012, dated 2016)
Each block holds one compound with its values, some of them ahead of it.

Key:
[1] = test system: bevacizumab; test: viscosity of highly concentrated bevacizumab solution, cone/plate rheometer; type: physicochemical; conditions: Table I; bevacizumab 250 mg/mL, 150 mM additive, pH 6.2 ± 0.2, 21° C.
Excerpt: (§1) For this example, three solutions of monoclonal antibodies, i.e. a solution of bevacizumab (an IgG1 sold under the name Avastin® by Genentech/Hoffmann La Roche), a solution of infliximab (an IgG1/K sold under the name Remicade® by Schering-Plough), a solution of rituximab (an IgG1/K sold under the name mAbThera® by Hoffmann La Roche) and a solution of fusion protein, i.e. a solution of abatacept (IgG1-CTLA4 sold under the name Orencia® by Bristol-Meyers Squibb), were concentrated by ultrafiltration on Amicon® Ultra-15 filtration units with a cutoff threshold of 50 kDa.
The protein concentration of each concentrated solution was measured by UV spectroscopy (absorbance at 280 nm) after gravimetric dilution of the samples. […]
(§2) The effect of RVs 2 and 9 on the viscosity of these four highly concentrated therapeutic protein solutions was then evaluated comparatively with that of Arg and NaCl. To do this, the viscosity was measured using a cone/plate rheometer (TA Instrument, AR 2000 Ex, geometry of diameter 20 mm, cone of 0.5131°, solvent trap filled with water) at a temperature of 21° C. and in flow sweep mode with shear rates of between 5000 and 50 s^−1 (3 points per decade—steady-state sensing). […]

[2] = test system: rituximab; test: viscosity of highly concentrated rituximab solution, cone/plate rheometer; type: physicochemical; conditions: rituximab 196 mg/mL, 150 mM additive
Excerpt: as §1
(§3) The protein concentration of each concentrated solution was measured by UV spectroscopy (absorbance at 280 nm) after gravimetric dilution of the samples.
The solutions of rituximab (10 mg/mL) and of bevacizumab (25 mg/mL) were concentrated, respectively, to 320 mg/mL and 240 mg/mL.
(§4) The effect of RVs 2 and 9 on the viscosity of these four highly concentrated therapeutic protein solutions was then evaluated comparatively with that of Arg and NaCl.
(§5) The samples thus prepared were stored at room temperature and were analyzed using the rheometer within 24 hours of their preparation.
(§6) The pH of these formulations is the same as that of the commercial formulation of the corresponding therapeutic protein.
(§7) In this study, the highly concentrated infliximab and rituximab solutions used are the same as those which were prepared and used previously. […] The pH of these formulations is the same as that of the corresponding therapeutic protein formulation, i.e. 7.2±0.2 for infliximab, and 6.5±0.2 for rituximab.

[3] = biological target: T1, abatacept (Homo sapiens, UniProt P16410); test: viscosity of highly concentrated abatacept (fusion protein) solution, cone/plate rheometer; type: physicochemical; conditions: Table I; abatacept 230 mg/mL, 150 mM additive, pH 7.5 ± 0.5, 21° C.
T1 construct: a fragment of a protein of interest which is the extracellular domain of the receptor of protein CTLA-4; purchased Bristol-Meyers Squibb (Orencia)
Excerpt: as §1, §3, §2

[4] = test system: infliximab; test: viscosity of highly concentrated infliximab solution, cone/plate rheometer at 21° C.; type: physicochemical; conditions: for % viscosity reduction relative to the control infliximab solution: Table V; for % viscosity reduction relative to the control infliximab solution / viscosity lowering on average, irrespective of the infliximab concentration: additive at 150 mM; for viscosity lowering on average, irrespective of the infliximab concentration: average over infliximab 80-110 mg/mL
Excerpt: as §1, §3, §4, §5, §6, §7
The highly concentrated infliximab solution used is the same as that which was prepared and used previously. The “protein+RV” formulations were prepared in the presence of concentrations increasing from 0 to 200 mM of Arg or RV 9. The pH of these formulations is the same as that of the commercial infliximab formulation, i.e. 7.2±0.2.
The highly concentrated infliximab solution used is the same as that which was prepared and used previously.
The pH of these formulations is the same as that of the commercial infliximab formulation, i.e. 7.2±0.2.
The highly concentrated infliximab solution used was prepared in the same manner as that used previously. […] The pH of these formulations is the same as that of the commercial infliximab formulation, i.e. 7.2±0.2.

[5] = test system: infliximab; test: viscosity of highly concentrated infliximab formulation, cone/plate rheometer at 25° C. (example 7); type: physicochemical; conditions: Table VII; infliximab 125 mg/mL, 150 mM additive, pH 7.2 ± 0.2, 25° C.
Procedure: For this example, two monoclonal antibody formulations, i.e. infliximab and trastuzumab (an IgG1/κ sold under the name Herceptin® by Genentech) were concentrated by ultrafiltration on Amicon® Ultra-50 centrifugal filtration units with a cutoff threshold of 50 kDa. The protein concentration of each concentrated solution was measured by UV spectroscopy (absorbance at 280 nm) after gravimetric dilution of the samples. […]
(§8) The effect of RVs 2 and 11 on the viscosity of these two highly concentrated therapeutic protein formulations was then evaluated comparatively to that of Arg and NaCl. To do this, the viscosity was measured using a cone/plate rheometer (TA Instrument, AR 2000 Ex, geometry of diameter 20 mm, cone of 0.5131°, solvent trap filled with water) at a temperature of 25° C. and in flow sweep mode with shear rates of between 5000 and 50 s^−1 (3 points per decade—steady-state sensing).
For this example, the “protein+RV” formulations were prepared by mixing a solution of RV at about 1 M obtained in example 1 with one of the concentrated infliximab and trastuzumab formulations prepared previously and the corresponding buffer so as to reach a final RV concentration of 150 mM and a final protein concentration of 125 mg/mL for infliximab and 200 mg/mL for trastuzumab. […]

[6] = test system: trastuzumab; test: viscosity of highly concentrated trastuzumab formulation, cone/plate rheometer at 25° C. (example 7); type: physicochemical; conditions: Table VII; trastuzumab 200 mg/mL, 150 mM additive, pH 6 ± 0.2, 25° C.
Procedure: For this example, two monoclonal antibody formulations, i.e. infliximab and trastuzumab (an IgG1/κ sold under the name Herceptin® by Genentech) were concentrated by ultrafiltration on Amicon® Ultra-50 centrifugal filtration units with a cutoff threshold of 50 kDa. The protein concentration of each concentrated solution was measured by UV spectroscopy (absorbance at 280 nm) after gravimetric dilution of the samples.
Once reconstituted, the infliximab and trastuzumab formulations were concentrated, respectively, to 212 mg/mL and 277 mg/mL.
as §8, with “sensing). […]” for “sensing).”

[7] = test system: trastuzumab; conditions: phenylalanine 0.2%, i.e. 12 mM; trastuzumab 300 mg/mL; WO 2013/063 510; cited from earlier work
[8] = test system: anti-IL5 antibody; conditions: tyrosine 0.004% w/v, i.e. 0.2 mM; WO 2012/141 978; cited from earlier work
[9] = Table I, infliximab 107 mg/mL, 150 mM additive, pH 7.2 ± 0.2, 21° C.
[10] = Table II, infliximab 107 mg/mL, 150 mM additive, pH 7.2 ± 0.2
[11] = Table IV, infliximab 107 mg/mL, additive 25 mM, pH 7.2 ± 0.2
[12] = Table IV, infliximab 107 mg/mL, additive 50 mM, pH 7.2 ± 0.2
[13] = Table IV, infliximab 107 mg/mL, additive 100 mM, pH 7.2 ± 0.2
[14] = Table IV, infliximab 107 mg/mL, additive 150 mM, pH 7.2 ± 0.2
[15] = Table IV, infliximab 107 mg/mL, additive 200 mM, pH 7.2 ± 0.2
[16] = infliximab 80 mg/mL, pH 7.2 ± 0.2
[17] = infliximab 90 mg/mL, pH 7.2 ± 0.2
[18] = infliximab 100 mg/mL, pH 7.2 ± 0.2
[19] = infliximab 110 mg/mL, pH 7.2 ± 0.2

T1 sequence (P16410 with tags, fused parts or gaps limits assumed): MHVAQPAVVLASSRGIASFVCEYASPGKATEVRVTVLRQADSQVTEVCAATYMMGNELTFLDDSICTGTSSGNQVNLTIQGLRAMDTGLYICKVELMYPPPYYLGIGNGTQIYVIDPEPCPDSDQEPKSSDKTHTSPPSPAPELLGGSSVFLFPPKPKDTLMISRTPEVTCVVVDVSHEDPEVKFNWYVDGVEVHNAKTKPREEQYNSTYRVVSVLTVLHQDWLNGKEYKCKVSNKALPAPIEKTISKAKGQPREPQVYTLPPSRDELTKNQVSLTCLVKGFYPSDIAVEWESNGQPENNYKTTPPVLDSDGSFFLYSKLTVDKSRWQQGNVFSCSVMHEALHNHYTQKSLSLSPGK

Compound: Cl.N=C(N)NCCC[C@H](N)C(=O)O [Arg, L-arginine hydrochloride salt]
% viscosity reduction relative to the control “protein alone” [1]: 26%
% viscosity reduction relative to the control “protein alone” ([2]; Table I, pH 6.5 ± 0.2, 21° C.): 58%
% viscosity reduction relative to the control “protein alone” ([2]; Table III, pH 6.5 ± 0.2): 58%
% viscosity reduction relative to the control “protein alone” [3]: 31%
% viscosity reduction relative to the control “protein alone” [4, 9]: 32%
% viscosity reduction relative to the control “protein alone” [4, 10]: 32%
% viscosity reduction relative to the control “protein alone” [4, 11]: 9%
% viscosity reduction relative to the control “protein alone” [4, 12]: 13%
% viscosity reduction relative to the control “protein alone” [4, 13]: 9%
% viscosity reduction relative to the control “protein alone” [4, 14]: 31%
% viscosity reduction relative to the control “protein alone” [4, 15]: 34%
% viscosity reduction relative to the control infliximab solution [4, 16]: 25%
% viscosity reduction relative to the control infliximab solution [4, 17]: 30%
% viscosity reduction relative to the control infliximab solution [4, 18]: 39%
% viscosity reduction relative to the control infliximab solution [4, 19]: 22%
viscosity lowering on average, irrespective of the infliximab concentration [4]: about 29%
% of viscosity reduction relative to the control “protein alone” [5]: 11%
% of viscosity reduction relative to the control “protein alone” [6]: 56%

Compound: [Cl-].[Na+] [NaCl, sodium chloride]
% viscosity reduction relative to the control “protein alone” [1]: ≦0%
% viscosity reduction relative to the control “protein alone” ([2]; Table I, pH 6.5 ± 0.2, 21° C.): 21%
% viscosity reduction relative to the control “protein alone” ([2]; Table III, pH 6.5 ± 0.2): 21%
% viscosity reduction relative to the control “protein alone” [3]: 7%
% viscosity reduction relative to the control “protein alone” [4, 9]: ≦0%
% viscosity reduction relative to the control “protein alone” [4, 10]: ≦0%
% of viscosity reduction relative to the control “protein alone” [5]: ≦0%
% of viscosity reduction relative to the control “protein alone” [6]: 38%

% viscosity reduction relative to the control “protein alone” ([2]; Table III, pH 6.5 ± 0.2): 43%
% viscosity reduction relative to the control “protein alone” [4, 10]: 56%
Compound: Cl.NC(Cc1ccccc1)C(=O)NCCO (stereo not drawn) [RV 2, (2S-2-amino(3-phenylpropanoyl)amino)-ethanol hydrochloride salt]

Compound: Cl.N[C@H](CO)Cc1ccccc1 [RV 4, (S)-(−)-2-amino-3-phenyl-1-propanol hydrochloride salt]
% viscosity reduction relative to the control “protein alone” ([2]; Table III, pH 6.5 ± 0.2): 37%
% viscosity reduction relative to the control “protein alone” [4, 10]: 36%

Compound: C[N+](C)(C)Cc1ccccc1.[Cl-] [RV 5, benzyltrimethylammonium chloride]
% viscosity reduction relative to the control “protein alone” ([2]; Table III, pH 6.5 ± 0.2): 38%
% viscosity reduction relative to the control “protein alone” [4, 10]: 49%

Compound: Cl.NCCc1ccccc1 [RV 6, 2-phenylethylamine hydrochloride salt]
% viscosity reduction relative to the control “protein alone” ([2]; Table III, pH 6.5 ± 0.2): 39%
% viscosity reduction relative to the control “protein alone” [4, 10]: 38%

Compound: Cl.NCCc1ccc(O)c(O)c1 [RV 7, dopamine hydrochloride salt]
% viscosity reduction relative to the control “protein alone” ([2]; Table III, pH 6.5 ± 0.2): 39%
% viscosity reduction relative to the control “protein alone” [4, 10]: 38%

% viscosity reduction relative to the control “protein alone” ([2]; Table III, pH 6.5 ± 0.2): 52%
% viscosity reduction relative to the control “protein alone” [4, 10]: 46%
Compound: Cl.NCCOc1ccccc1 [RV 8, 2-phenoxyethylamine hydrochloride salt]

% viscosity reduction relative to the control “protein alone” ([2]; Table III, pH 6.5 ± 0.2): 48%
% viscosity reduction relative to the control “protein alone” [4, 10]: 52%
% viscosity reduction relative to the control “protein alone” [4, 11]: 19%
% viscosity reduction relative to the control “protein alone” [4, 12]: 31%
% viscosity reduction relative to the control “protein alone” [4, 13]: 41%
% viscosity reduction relative to the control “protein alone” [4, 14]: 44%
% viscosity reduction relative to the control “protein alone” [4, 15]: 56%
% viscosity reduction relative to the control infliximab solution [4, 16]: 50%
% viscosity reduction relative to the control infliximab solution [4, 17]: 52%
% viscosity reduction relative to the control infliximab solution [4, 18]: 55%
% viscosity reduction relative to the control infliximab solution [4, 19]: 49%
viscosity lowering on average, irrespective of the infliximab concentration [4]: about 52%
concentration sufficient to obtain a viscosity reduction equivalent to that obtained using Arg at 150 mM ([4]; infliximab 107 mg/mL): 50000 µM
efficiency in viscosity reduction relative to Arg ([4]; infliximab 107 mg/mL, at 100 mM): about 4 times
efficiency in viscosity reduction relative to Arg ([4]; infliximab 107 mg/mL, at 150 mM): twice as efficient as Arg
Compound: Cl.NC(=O)[C@@H](N)Cc1ccccc1 [RV 9, L-phenylalaninamide hydrochloride salt]

Compound: N[C@@H](Cc1ccccc1)C(=O)O [phenylalanine]
increase of the viscosity of a trastuzumab formulation [7]: 83%

Compound: N[C@@H](Cc1ccc(O)cc1)C(=O)O [tyrosine]
increase of the viscosity of the anti-IL5 antibody solution [8]: 44%
